Reference: US11932874B2, “Method for culturing mesenchymal stem cells using gamma-irradiated serum” (R Bio CO., Ltd., priority 2018, dated 2024)

Legend:
Format in all cases: cell-based
[1] = system: human adipose tissue-derived stem cells; assay: Viability of stem cells cultured in 30 kGy gamma-irradiated FBS (Example 5): cell number, size, viability, doubling time; details: 30 kGy FBS, 4 days; for Cell No. / Cell size / DT / Viability: average (n = 3)
Description: Fetal bovine serum (FBS) was irradiated with 30 kGy of gamma radiation, thereby preparing gamma-irradiated FBS. Vitamin C (ascorbic acid; L-Ascorbic Acid 2-phosphate) was added to the FBS which was then irradiated with 30 kGy of gamma irradiation, thereby preparing gamma-irradiated FBS pretreated with vitamin C. The vitamin C was added to the FBS at a concentration of 1%. Then, the human adipose tissue-derived stem cells at passage 3, isolated in Example 1, were thawed and inoculated into T75 flasks at a concentration of 0.5×10^6 cells/T75 flask, and the inoculated cells were cultured with AMSC+ culture medium (R-Bio Co., Ltd.) containing the prepared gamma-irradiated FBS or gamma-irradiated FBS pretreated with vitamin C at a concentration of 5% in a CO2 incubator at 37° C. for 2 days. After 2 days of culture, the medium was removed and replaced with AMSC+ culture medium containing 5% gamma-irradiated FBS (a negative control group), medium obtained by adding vitamin C to AMSC+ culture medium containing 5% gamma-irradiated FBS (a vitamin C post-treatment test group), or medium obtained by adding vitamin C to AMSC+ culture medium containing 5% gamma-irradiated FBS pretreated with vitamin C (a vitamin C pre- and post-treatment test group) (Table 4). Vitamin C was added to the culture medium or FBS at a concentration of 1%. After 4 days of culture (FIG. 6), the cell proliferation rate, cell number, viability and doubling time of the stem cells were examined. A positive control group was also prepared as described in Example 2 above. [table]

[2] = system: human adipose tissue-derived stem cells; assay: Expression of stem cell CD markers by FACS (Example 7); design: CD73 expression (FACS) / CD31 expression (FACS) / CD34 expression (FACS) / CD45 expression (FACS): unit not given here; details: for CD31 expression (FACS) / CD34 expression (FACS) / CD45 expression (FACS) / CD73 expression (FACS) / CD90 expression (FACS): 30 kGy FBS; for CD90 expression (FACS): in % (unit assumed)
Description: (§1) For the positive control group and vitamin C post-treatment test group of Example 6, the purity and characteristics of the stem cells at passage 4 were examined. The purity of the stem cells was examined by analyzing the expression of CD markers using FACS (FIG. 12 and Table 10), and the characteristics of the stem cells were examined by analyzing differentiation into adipocytes, osteocytes and chondrocytes (FIGS. 13 to 15). Differentiation into adipocytes was analyzed by oil red 0 staining according to the Sigma-Aldrich protocol, and differentiation into osteocytes was analyzed by alizarin red S staining according to the Lifeline Cell Tech's protocol, and differentiation into chondrocytes was analyzed by TSP2 ELISA.

[3] = system: human adipose tissue-derived stem cells; assay: Culture of stem cells in AMSC+ medium with 25 kGy gamma-irradiated FBS and vitamin C post-treatment (Example 2): cell number, doubling time; details: for Cell No. / Doubling time: Ad-MSC (P4)
Description: Fetal bovine serum (FBS) was irradiated with 25 kGy of gamma radiation (Soyagreentec Co., Ltd.), thereby preparing gamma-irradiated FBS. Then, the human adipose tissue-derived stem cells at passage 3, isolated in Example 1, were thawed and inoculated into T75 flasks at a concentration of 0.5×10^6 cells/T75 flask, and the inoculated cells were cultured with AMSC+ culture medium (R-Bio Co., Ltd.) containing the prepared gamma-irradiated FBS at a concentration of 5% in a CO2 incubator at 37° C. for 2 days. After 2 days of culture, the medium was removed and replaced with either AMSC+ culture medium containing 5% gamma-irradiated FBS (a negative control group) or medium obtained by adding vitamin C (ascorbic acid; L-Ascorbic Acid 2-phosphate) to AMSC+ culture medium containing 5% gamma-irradiated FBS (a vitamin C post-treatment test group). Vitamin C was added to the culture medium at concentrations of 0.025, 0.05, 0.1 and 1%. The AMSC+ culture medium (R-Bio Co., Ltd.) is a 1:1 mixture of KSFM-P medium (containing Defined Keratinocyte-SFM, 0.2 mM L-ascorbic acid 2-phosphate, 5 μg/ml insulin, 2 mM N-acetyl-L-cysteine, 0.09 mM calcium chloride, 74 ng/ml hydrocortisone and 5% FBS) and DMEM medium. After 4 days of culture, the cell proliferation rate and doubling time of the cells were examined. The viability of the cells was examined with a microscope and a hemocytometer, and the doubling time was calculated using the following equation: Doubling Time=duration×log(2)/log(final concentration)−log(initial concentration). [Equation 1] A positive control group was cultured using 5% normal FBS (which was not irradiated with gamma radiation) and AMSC+ culture medium in the same manner as the negative control group and the test group.

[4] = system: human adipose tissue-derived stem cells; assay: Differentiation into adipocytes, oil red O staining (Example 7); details: 30 KGy gamma radiation, post-treated with 1% vitamin C, passage 4
Description: as §1

[5] = system: human adipose tissue-derived stem cells; assay: Differentiation into osteocytes, alizarin red S staining (Example 7); details: 30 KGy gamma radiation, post-treated with 1% vitamin C, passage 4
Description: as §1

[6] = system: human adipose tissue-derived stem cells; assay: Differentiation into chondrocytes, TSP2 ELISA (Example 7); details: 30 KGy gamma radiation, post-treated with 1% vitamin C, passage 4
Description: as §1

[7] = 1% Vit. C pre-treatment + 1% Vit. C post-treatment
[8] = Stem cells #1 P4, 1% vitamin C post-treatment
[9] = Stem cells #2 P4, 1% vitamin C post-treatment
[10] = Stem cells #3 P4, 1% vitamin C post-treatment
[11] = 25 KGy FBS + 0.025% AA2P added to medium, 4 days of culture
[12] = 25 KGy FBS + 0.05% AA2P added to medium, 4 days of culture
[13] = 25 KGy FBS + 0.1% AA2P added to medium, 4 days of culture
[14] = 25 KGy FBS + 1% AA2P added to medium, 4 days of culture
[15] = vitamin C post-treatment, 25 kGy FBS, 4 days of culture

## O=C1O[C@H]([C@@H](O)CO)C(O)=C1OP(=O)(O)O [AA2P, L-Ascorbic Acid 2-phosphate]
[1]; 1% Vit. C post-treatment
  Cell No.: 4.3 ×10^6 cells
  Cell size: 19.3 μm
  DT: 29.9 h
  Viability: 86.9%
[1]; [7]
  Cell No.: 5.7 ×10^6 cells
  Cell size: 20.3 μm
  DT: 28.1 h
  Viability: 86.5%
[1]; 1% Vit. C pre-treatment
  Cell No.: 5.8 ×10^6 cells
  Cell size: 18.8 μm
  DT: 27.6 h
  Viability: 92.3%
[1]; vitamin C post-treatment test group
  cell number, viability and doubling time versus positive control group: increased to the levels of the positive control group
[2]; 30 KGy gamma radiation, post-treated with 1% vitamin C, passage 4
  expression of CD markers versus positive control group: did not differ from that in the positive control group
[2]; [8]
  CD31 expression (FACS): 0.52
  CD34 expression (FACS): 0.31
  CD45 expression (FACS): 0.49
  CD73 expression (FACS): 94.30
  CD90 expression (FACS): 99.98
[2]; [9]
  CD31 expression (FACS): 0.16
  CD34 expression (FACS): 0.14
  CD45 expression (FACS): 0.11
  CD73 expression (FACS): 93.42
  CD90 expression (FACS): 99.99
[2]; [10]
  CD31 expression (FACS): 0.47
  CD34 expression (FACS): 0.70
  CD45 expression (FACS): 0.78
  CD73 expression (FACS): 91.45
  CD90 expression (FACS): 99.99
[3]; [11]
  Cell No.: 10.035 ×10^6 cells
  Doubling time: 31.33 h
[3]; [12]
  Cell No.: 9.5 ×10^6 cells
  Doubling time: 32.16 h
[3]; [13]
  Cell No.: 10.6 ×10^6 cells
  Doubling time: 30.54 h
[3]; [14]
  Cell No.: 12 ×10^6 cells
  Doubling time: 28.9 h
[3]; [15]
  cell number versus negative control group: increased compared to the negative control group
  doubling time versus negative control group: decreased compared to the negative control group
[3]; vitamin C post-treatment, 25 kGy FBS, days 0, 1 and 4 (FIG. 1)
  microscope observation of stem cells: levels similar to those of the positive control group
[4]
  differentiation into adipocytes versus positive control group: did not differ from those of the positive control group
[5]
  differentiation into osteocytes versus positive control group: did not differ from those of the positive control group
[6]
  differentiation into chondrocytes versus positive control group: did not differ from those of the positive control group
